Here are results for eight compounds from ChEMBL document CHEMBL5344429, “1,3-Substituted β-Carboline Derivatives as Potent Chemotherapy for the Treatment of Cystic Echinococcosis” (J Med Chem, 2023).

Series [1] concerns Echinococcus granulosus. In words: Parasiticidal activity against Echinococcus granulosus protoscolices assessed as death rate at 1 uM incubated for 48 hrs by eosin exclusion test. It is filed as functional.
Series [2] deals with Echinococcus granulosus. In words: Parasiticidal activity against Echinococcus granulosus protoscolices […] by eosin exclusion test. The settings on record: 1152 h, time 48 day. It is filed as functional.
Series [3] relates to Echinococcus granulosus. In words: Inhibition of Echinococcus granulosus. It is filed as functional.
Series [4] is described as follows: Neurotoxicity in Kunming mouse assessed as deformed pyramidal cells in brain at 50 mg/kg, ip administered for 28 days by H and E staining based assay. It is filed as toxicity, organism-based. The settings on record: in vivo, 672 h, time 28 day.
A short description of series [5]: Neurotoxicity in Kunming mouse assessed as loosely arranged pyramidal cells in brain at 50 mg/kg, ip administered for 28 days by H and E staining based assay. The conditions noted are these: in vivo, 672 h, time 28 day. It is filed as toxicity, organism-based.
Series [6] is described as follows: Neurotoxicity in Kunming mouse assessed as organelles damage at 50 mg/kg, ip administered for 28 days by TEM analysis. It is filed as toxicity, organism-based. The settings on record: in vivo, 672 h, time 28 day.
Series [7] can be described thus: Neurotoxicity in Kunming mouse assessed as nuclei damage at 50 mg/kg, ip administered for 28 days by TEM analysis. It is filed as toxicity, organism-based. The settings on record: in vivo, 672 h, time 28 day.
The nature of series [8]: Neurotoxicity in Kunming mouse assessed as effect on heterochromatin at 50 mg/kg, ip administered for 28 days by TEM analysis. It is filed as toxicity, organism-based. The conditions noted are these: in vivo, 672 h, time 28 day.
Series [9] is described as follows: Neurotoxicity in Kunming mouse assessed as swollen pyramidal cells in brain at 50 mg/kg, ip administered for 28 days by H and E staining based assay. It is filed as toxicity, organism-based. The conditions noted are these: in vivo, 672 h, time 28 day.
A short description of series [10]: Neurotoxicity in Kunming mouse assessed as effect on hippocampal arrangement at 50 mg/kg, ip administered for 28 days by TEM analysis. It is filed as toxicity, organism-based. The settings on record: in vivo, 672 h, time 28 day.
A short description of series [11]: Neurotoxicity in Kunming mouse assessed as effect on hippocampal structure at 50 mg/kg, ip administered for 28 days by TEM analysis. It is filed as toxicity, organism-based. The conditions noted are these: in vivo, 672 h, time 28 day.
The test system of series [12] is Echinococcus granulosus. In words: Parasiticidal activity against Echinococcus granulosus protoscolices assessed as change in ultrastructure at 5 uM incubated for 4 days by scanning electron microscopy. It is filed as functional, organism-based. The conditions noted are these: time 4.0 day.
Series [13] relates to Echinococcus granulosus. In words: Parasiticidal activity against Echinococcus granulosus protoscolices assessed as death rate at 5 uM incubated for 4 days by eosin exclusion test. It is filed as functional. The settings on record: time 4 day.
Series [14] is described as follows: Cmax in Wistar rat at 5 mg/kg, iv by HPLC analysis. It is filed as ADME, organism-based. Also on record: dose 5 mg/kg, route iv. The settings on record: in vivo.
Series [15] relates to Echinococcus granulosus. In words: Parasiticidal activity against Echinococcus granulosus protoscolices assessed as lethal effect incubated for 4 days by eosin exclusion test. It is filed as functional, organism-based. The conditions noted are these: dose 0.5-5 µM, time 4.0 day.
The subject of series [16] is Echinococcus granulosus. In words: Parasiticidal activity against Echinococcus granulosus protoscolices assessed as lethal effect at 0.5 to 5 uM by eosin exclusion test. It is filed as functional, organism-based. The settings on record: dose 0.5-5 µM, TDE = time-dependent effect.
The subject of series [17] is Echinococcus granulosus. In words: Parasiticidal activity against Echinococcus granulosus cyst assessed as formation of dense aggregates at 100 uM incubated for 4 days by scanning electron microscopy. It is filed as functional, organism-based. The conditions noted are these: time 4.0 day.
Series [18] concerns Echinococcus granulosus. In words: Parasiticidal activity against Echinococcus granulosus protoscolices assessed as appearance of rostellum hooks fall off at 5 uM incubated for 4 days by scanning electron microscopy analysis. It is filed as functional, organism-based. The settings on record: time 4.0 day.
The subject of series [19] is Echinococcus granulosus. In words: Parasiticidal activity against Echinococcus granulosus protoscolices assessed as loss of suckers at 5 uM incubated for 4 days by scanning electron microscopy. It is filed as functional. The settings on record: time 4.0 day.
Series [20] concerns Echinococcus granulosus. In words: Parasiticidal activity against Echinococcus granulosus protoscolices assessed as appearance of body shrank at 5 uM incubated for 4 days by scanning electron microscopy analysis. The conditions noted are these: time 4.0 day. It is filed as functional, organism-based.
Series [21] in a line: Oral bioavailability in Wistar rat at 50 mg/kg, […] by HPLC analysis. The conditions noted are these: in vivo. It is filed as ADME, organism-based.
For series [22], the system named is Echinococcus granulosus. In words: Parasiticidal activity against Echinococcus granulosus protoscolices assessed as increase in death rate at 5 uM incubated for 4 days by darker staining-based light microscopy. The settings on record: time 4.0 day. It is filed as functional, organism-based.
Series [23] can be described thus: AUC (0 to infinity) in Wistar rat at 5 mg/kg, iv by HPLC analysis. It is filed as ADME, organism-based. Also on record: dose 5 mg/kg, route iv. The conditions noted are these: in vivo.
The test system of series [24] is Echinococcus granulosus. In words: Parasiticidal activity against Echinococcus granulosus cyst assessed as seperation from cuticle at 100 uM incubated for 4 days by scanning electron microscopy. It is filed as functional, organism-based. The conditions noted are these: time 4.0 day.
Series [25] has as its system Echinococcus granulosus. In words: Parasiticidal activity against Echinococcus granulosus assessed as collapse of germinal layers at 100 uM incubated for 4 days by scanning electron microscopy. The settings on record: time 4.0 day. It is filed as functional, organism-based.
Series [26] deals with Echinococcus granulosus. In words: Parasiticidal activity against Echinococcus granulosus protoscolices assessed as appearance of blurred marginal structure at 5 uM incubated for 4 days by scanning electron microscopy analysis. It is filed as functional, organism-based. The conditions noted are these: time 4.0 day.
The subject of series [27] is Echinococcus granulosus. In words: Parasiticidal activity against Echinococcus granulosus protoscolices assessed as partial vacuolar change at 5 uM incubated for 4 days by scanning electron microscopy analysis. It is filed as functional, organism-based. The conditions noted are these: time 4.0 day.
Series [28] has as its system Echinococcus granulosus. In words: Parasiticidal activity against Echinococcus granulosus protoscolices assessed as degeneration of outer skin at 5 uM incubated for 4 days by scanning electron microscopy. The conditions noted are these: time 4.0 day. It is filed as functional, organism-based.
Series [29] deals with Echinococcus granulosus. In words: Parasiticidal activity against Echinococcus granulosus protoscolices assessed as loss of hooks at 5 uM incubated for 4 days by scanning electron microscopy. It is filed as functional, organism-based. The settings on record: time 4.0 day.
Series [30] has as its system Echinococcus granulosus. In words: Parasiticidal activity against Echinococcus granulosus protoscolices assessed as death rate at 0.5 uM incubated for 4 days by eosin exclusion test. It is filed as functional. The conditions noted are these: time 4 day.

Active and inactive are the calls of the source. The calls are words filed in the database; no cut-off is given here. Some results are limits rather than exact numbers.

Turning to `COc1cccc(-c2nc(C(=O)Nc3ccc(CN4CCC(N5CCCCC5)CC4)cc3)cc3c2[nH]c2ccccc23)c1OC`, in the series on Echinococcus granulosus [1], the result was Active. The 50% lethal concentration (LC50) in the series with Echinococcus granulosus [2] came to 5.8 µM.
Taken in the same sequence, the figures for `COc1ccc(-c2nc(C(=O)Nc3ccc(CN4CCC(N5CCCCC5)CC4)cc3)cc3c2[nH]c2ccccc23)cc1` were “Active” and 7.67 µM.
With `COc1cccc(-c2nc(C(=O)Nc3ccc(CN4CCC(N5CCCCC5)CC4)cc3)cc3c2[nH]c2ccccc23)c1`, the result in the series with Echinococcus granulosus [1] was Active. In the series on Echinococcus granulosus [2], this compound yielded an LC50 of 18.1 µM.
Consider `CCCCn1c2ccccc2c2ccnc(-c3ccc(OC)cc3)c21`, for which the LC50 with Echinococcus granulosus [3] turned out to be 47.8 µM.
`CCCSc1ccc2nc(NC(=O)OC)[nH]c2c1` [ALBENDAZOLE]: the Activity entry in series [4], in [5], in series [6], in series [7], in series [8] and in series [9] was “Non-Toxic” each time. The Activity result in series [10] and in series [11] was “Non-Toxic” throughout.
`COc1cccc(-c2nc(NC(=O)c3ccc(CN4CCCN(C)CC4)cc3)cc3c2[nH]c2ccccc23)c1` gave a median lethal concentration (LC50) in the series with Echinococcus granulosus [2] of 17.9 µM.
Turning to `Cc1ccc(-c2nc(NC(=O)c3ccc(CN4CCC(N5CCCCC5)CC4)cc3)cc3c2[nH]c2ccccc23)cc1`, the outcome with Echinococcus granulosus [1] was Active. The LC50 in the series with Echinococcus granulosus [2] amounted to 12.5 µM.
Turning to `COc1ccc(-c2nc(NC(=O)c3ccc(CN4CCC(N5CCCCC5)CC4)cc3)cc3c2[nH]c2ccccc23)cc1OC`, the result in the series with Echinococcus granulosus [12], in the series on Echinococcus granulosus [17], in the series on Echinococcus granulosus [18], in the series on Echinococcus granulosus [19], in the series with Echinococcus granulosus [20] and in the series on Echinococcus granulosus [22] was Active. Besides, the result with Echinococcus granulosus [24], in the series with Echinococcus granulosus [25], with Echinococcus granulosus [26], in the series on Echinococcus granulosus [27], in the series on Echinococcus granulosus [28] and with Echinococcus granulosus [29] was Active. The Activity was more than 90% in the series on Echinococcus granulosus [13]; “Dose-Dependent Effect” in the series on Echinococcus granulosus [15]; “Tde” in the series on Echinococcus granulosus [16]; 56.27% with Echinococcus granulosus [1]; more than 50% in the series with Echinococcus granulosus [30]. The same compound registered a peak concentration (Cmax) in series [14] of 1400 ng/mL. In series [21], this compound showed a bioavailability of 26.8%. Moreover, the total exposure AUC(0-inf) in series [23] amounted to 1770 ng·h/mL. In the series with Echinococcus granulosus [2], the LC50 amounted to 3.59 µM.
